The target in test [1] is T1, HCV polymerase (NS5B) type 1a (Hepatitis C virus genotype 1a, UniProt P26664).
T1 construct: made in house; host or cells: Escherichia coli (by the 'similar method' of the 1b enzyme)
In words: Assay of enzyme (HCV polymerase) inhibitory activity, type 1a enzyme. Format: biochemical, HCV type 1a (cloned from the blood of patients). The conditions noted are these: HCV polymerase inhibitory activity IC50, 1a, type 1a enzyme. In short, it runs like this: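 Patient-derived type 1a NS5B (C-terminal 47-aa deletion, His-tagged, E. coli-expressed) at 1.5 μg/ml was reacted with 5 μg/ml 3′UTR-containing substrate RNA, 50 μM ATP/GTP/CTP, 2 μM UTP plus [3H]UTP, pH 7.5, 25° C for 60 min. TCA-precipitated RNA radioactivity was counted; IC50 from ± compound.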

Test [2] deals with T2, HCV polymerase (NS5B) type 1b (Hepatitis C virus genotype 1b, UniProt P26663).
T2 construct: a region encoding NS5B (J Virol 1991 March, 65(3), 1105-13, 544 amino acids after deletion of 47 amino acids on the C-terminal); 6xHis (C); made in house; host or cells: Escherichia coli
In words: Assay of enzyme (HCV polymerase) inhibitory activity, type 1b enzyme. In kind it is biochemical, HCV BK strain (type 1b). Conditions: HCV polymerase inhibitory activity IC50, 1b, type 1b enzyme. In short, it runs like this: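 NS5B from HCV BK strain (type 1b), C-terminal 47 aa deleted, C-terminal His6-tagged, E. coli-expressed, 0.5 μg/ml, with ~450 nt substrate RNA carrying the 3′ UTR (polyU, 3′X) at 5 μg/ml. Incubation 60 min at 25 °C with 50 μM ATP/GTP/CTP, 2 μM UTP plus [3H]UTP, pH 7.5 Tris.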

By IC50 is commonly meant the midpoint of a concentration-inhibition curve. Low readings indicate greater potency, high ones weaker potency. Turning to `Cc1n[nH]c(=O)c2sc(N3CCN(S(=O)(=O)c4ccc(OC(F)(F)F)cc4)[C@@H](C(=O)NCc4ccc(OC(F)(F)F)cc4)C3)nc12` [Example 839, (R)-4-(4-methyl-7-oxo-6,7-dihydro-thiazolo[4,5-d]pyridazin-2-yl)-1-(4-trifluoromethoxy-benzenesulfonyl)-piperazine-2-carboxylic acid 4-trifluoromethoxy-benzylamide], the IC50 in test [1] and in test [2] was less than 100 nM throughout.
Turning to `CCC(C)(C)c1ccc(CNC(=O)[C@H]2CN(c3nc4cn[nH]c(=O)c4s3)CCN2S(=O)(=O)c2ccc(OC(F)(F)F)cc2)cc1` [Example 840, (R)-4-(7-oxo-6,7-dihydro-thiazolo[4,5-d]pyridazin-2-yl)-1-(4-trifluoromethoxy-benzenesulfonyl)-piperazine-2-carboxylic acid 4-(1,1-dimethyl-propyl)-benzylamide], the IC50 in test [1] and in test [2] was less than 100 nM throughout.
For the compound `CCCCc1ccc(CNC(=O)[C@H]2CN(c3nc4cn[nH]c(=O)c4s3)CCN2S(=O)(=O)c2ccc(OC(F)(F)F)cc2)cc1` [Example 841, (R)-4-(7-oxo-6,7-dihydro-thiazolo[4,5-d]pyridazin-2-yl)-1-(4-trifluoromethoxy-benzenesulfonyl)-piperazine-2-carboxylic acid 4-butyl-benzylamide], the IC50 in test [1] and in test [2] was less than 100 nM throughout.
Turning to `CCCc1ccc(CNC(=O)[C@H]2CN(c3cnc4cncc(C(=O)O)c4n3)CCN2S(=O)(=O)c2ccc(C(F)(F)F)cc2)cc1` [Example 842, 2-[(R)-3-(4-propyl-benzylcarbamoyl)-4-(4-trifluoromethyl-benzenesulfonyl)-piperazin-1-yl]-pyrido[3,4-b]pyrazine-8-carboxylic acid], the IC50 in test [1] and in test [2] was less than 100 nM throughout.
For the compound `CCCc1ccc(CNC(=O)[C@H]2CN(c3cnc4cncc(C(=O)O)c4n3)CCN2S(=O)(=O)c2ccc([N+](=O)[O-])cc2)cc1` [Example 843, 2-[(R)-4-(4-nitro-benzenesulfonyl)-3-(4-propyl-benzylcarbamoyl)-piperazin-1-yl]-pyrido[3,4-b]pyrazine-8-carboxylic acid], the IC50 in test [1] and in test [2] was less than 100 nM each time.
For `CCCc1ccc(CNC(=O)[C@H]2CN(c3cnc4cncc(C(=O)O)c4n3)CCN2S(=O)(=O)c2ccc(C(C)(C)C)cc2)cc1` [Example 844, 2-[(R)-4-(4-tert-butyl-benzenesulfonyl)-3-(4-propyl-benzylcarbamoyl)-piperazin-1-yl]-pyrido[3,4-b]pyrazine-8-carboxylic acid], the IC50 in test [1] and in test [2] was less than 100 nM throughout.
For the compound `CCCc1ccc(CNC(=O)[C@H]2CN(c3cnc4cncc(C(=O)O)c4n3)CCN2S(=O)(=O)c2ccc(Cl)cc2)cc1` [Example 845, 2-[(R)-4-(4-chloro-benzenesulfonyl)-3-(4-propyl-benzylcarbamoyl)-piperazin-1-yl]-pyrido[3,4-b]pyrazine-8-carboxylic acid], the IC50 in test [1] and in test [2] was less than 100 nM throughout.
Turning to `CCCc1ccc(CNC(=O)[C@H]2CN(c3nc(C)c(C(=O)C(=O)OCC)s3)CCN2S(=O)(=O)c2ccc(OC(F)(F)F)cc2)cc1` [Example 846, {4-methyl-2-[(R)-3-(4-propyl-benzylcarbamoyl)-4-(4-trifluoromethoxy-benzenesulfonyl)-piperazin-1-yl]-thiazol-5-yl}-oxo-acetic acid ethyl ester], the IC50 in test [1] is 100 to 1000 nM; in test [2], less than 100 nM.
Taken in the same sequence, the figures for `CCCc1ccc(CNC(=O)[C@H]2CN(c3nc(Cl)c(C(=O)O)s3)CCN2S(=O)(=O)c2ccc(OC(F)(F)F)cc2)cc1` [Example 847, 4-chloro-2-[(R)-3-(4-propyl-benzylcarbamoyl)-4-(4-trifluoromethoxy-benzenesulfonyl)-piperazin-1-yl]-thiazole-5-carboxylic acid] were less than 100 nM and less than 100 nM.
With `CCCc1ccc(CNC(=O)[C@H]2CN(c3nc(C)c(C(=O)C(=O)O)s3)CCN2S(=O)(=O)c2ccc(OC(F)(F)F)cc2)cc1` [Example 848, {4-methyl-2-[(R)-3-(4-propyl-benzylcarbamoyl)-4-(4-trifluoromethoxy-benzenesulfonyl)-piperazin-1-yl]-thiazol-5-yl}-oxo-acetic acid], the IC50 in test [1] and in test [2] was less than 100 nM in each case.
Regarding `O=C(NCC1CC1c1ccccc1)[C@H]1CN(c2cnc3cncnc3n2)CCN1S(=O)(=O)c1ccc(OC(F)(F)F)cc1` (stereo partly drawn) [Example 849, (R)-4-pteridin-7-yl-1-(4-trifluoromethoxy-benzenesulfonyl)-piperazine-2-carboxylic acid (2-phenyl-cyclopropylmethyl)-amide], the IC50 in test [1] was 100 to 1000 nM; in test [2], less than 100 nM.
As for `O=C(NCc1ccc(OC(F)(F)F)cc1)[C@H]1CN(c2nc3cn[nH]c(=O)c3s2)CCN1S(=O)(=O)c1ccc(Cl)s1` [Example 850, (R)-1-(5-chloro-thiophene-2-sulfonyl)-4-(7-oxo-6,7-dihydro-thiazolo[4,5-d]pyridazin-2-yl)-piperazine-2-carboxylic acid 4-trifluoromethoxy-benzylamide], the IC50 in test [1] and in test [2] was less than 100 nM in each case.
Take `COCC(C)(C)c1ccc(CNC(=O)[C@H]2CN(c3nc4cn[nH]c(=O)c4s3)CCN2S(=O)(=O)c2ccc(OC(F)(F)F)cc2)cc1` [Example 851, (R)-4-(7-oxo-6,7-dihydro-thiazolo[4,5-d]pyridazin-2-yl)-1-(4-trifluoromethoxy-benzenesulfonyl)-piperazine-2-carboxylic acid 4-(2-methoxy-1,1-dimethyl-ethyl)-benzylamide]: the IC50 in test [1] and in test [2] was less than 100 nM in each case.
Take `CCNC(=O)c1cnc(N2CCN(S(=O)(=O)c3ccc(OC(F)(F)F)cc3)[C@@H](C(=O)NCc3ccc(OC(F)(F)F)cc3)C2)cn1` [Example 852, (R)-4-(4-trifluoromethoxy-benzenesulfonyl)-3,4,5,6-tetrahydro-2H-[1,2′]bipyrazinyl-3,5′-dicarboxylic acid 5′-ethylamide 3-(4-trifluoromethoxy-benzylamide)]: the IC50 in test [1] and in test [2] was less than 100 nM in each case.
On to `CC(C)(C)NC(=O)c1cnc(N2CCN(S(=O)(=O)c3ccc(OC(F)(F)F)cc3)[C@@H](C(=O)NCc3ccc(OC(F)(F)F)cc3)C2)cn1` [Example 853, (R)-4-(4-trifluoromethoxy-benzenesulfonyl)-3,4,5,6-tetrahydro-2H-[1,2′]bipyrazinyl-3,5′-dicarboxylic acid 5′-tert-butylamide 3-(4-trifluoromethoxy-benzylamide)], for which the IC50 is greater than 1000 nM in test [1] and 100 to 1000 nM in test [2].
On the same counts, the results for `CCc1ccc(S(=O)(=O)N2CCN(c3cnc4cncc(C(=O)O)c4n3)C[C@@H]2C(=O)NCc2ccc(C(C)(C)CC)cc2)cc1` [Example 854, 2-[(R)-3-[4-(1,1-dimethyl-propyl)-benzylcarbamoyl]-4-(4-ethyl-benzenesulfonyl)-piperazin-1-yl]-pyrido[3,4-b]pyrazine-8-carboxylic acid] are less than 100 nM and less than 100 nM.
Taken in the same sequence, the figures for `CCCCc1ccc(CNC(=O)[C@H]2CN(c3cnc4cncc(C(=O)O)c4n3)CCN2S(=O)(=O)c2ccc(CC)cc2)cc1` [Example 855, 2-[(R)-3-(4-butyl-benzylcarbamoyl)-4-(4-ethyl-benzenesulfonyl)-piperazin-1-yl]-pyrido[3,4-b]pyrazine-8-carboxylic acid] were less than 100 nM and less than 100 nM.

These data come from patent US8017612B2, “Piperazine compound and use thereof as a HCV polymerase inhibitor” (priority 2006, dated 2011).
